33 compounds from ChEMBL document CHEMBL4011610, “Design, synthesis and optimization of 7-substituted-pyrazolo[4,3-b]pyridine ALK5 (activin receptor-like kinase 5) inhibitors” (Bioorg Med Chem Lett, 2017) can be followed below.

Bounds are passed on as bounds.

Data set [1] concerns the target T1, TGF-beta receptor type-1 (Homo sapiens, UniProt P36897).
T1 sequence (P36897 whole entry): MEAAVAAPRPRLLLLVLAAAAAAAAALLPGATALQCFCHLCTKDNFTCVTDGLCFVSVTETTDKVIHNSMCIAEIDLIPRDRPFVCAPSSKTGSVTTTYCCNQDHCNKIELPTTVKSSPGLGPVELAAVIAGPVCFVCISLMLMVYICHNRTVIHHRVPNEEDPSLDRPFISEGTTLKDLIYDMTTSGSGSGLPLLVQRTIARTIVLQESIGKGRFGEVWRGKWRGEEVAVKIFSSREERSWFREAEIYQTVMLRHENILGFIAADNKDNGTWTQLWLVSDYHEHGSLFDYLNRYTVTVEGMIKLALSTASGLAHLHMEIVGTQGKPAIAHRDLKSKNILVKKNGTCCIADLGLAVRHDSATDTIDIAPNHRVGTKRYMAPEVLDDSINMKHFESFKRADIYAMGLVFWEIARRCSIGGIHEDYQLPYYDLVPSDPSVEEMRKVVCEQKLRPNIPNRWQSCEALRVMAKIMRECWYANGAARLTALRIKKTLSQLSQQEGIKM
Put plainly: Inhibition of ALK5 (unknown origin) expressed in SBE-bla HEK293T cells assessed as decrease in TGFbeta1-induced Smad2/3 phosphorylation by beta lactamase reporter gene assay. The data set is classed as cell-based. On the technique in general: A reporter such as luciferase makes a cellular process visible.

The nature of data set [2]: Hepatic extraction ratio in rat. The data set is classed as ADME. The settings on record: read-out: ERH.
In data set [3] the target is hERG (KCNH2) (Homo sapiens, UniProt Q12809). In words: Inhibition of human ERG expressed in CHOK1 cells at 10 uM by automated whole cell patch clamp Qpatch method relative to control. In kind it is cell-based. The note with it: CHO-K1 cells expressing human ERG. Background: In patch-clamp work, channel activity is measured electrically.
Data set [4] in a line: Hepatic extraction ratio in human. In kind it is ADME. The note with it: read-out: ERH.
The target in data set [5] is Cytochrome P450 3A4 (Homo sapiens, UniProt P08684). Put plainly: Inhibition of CYP3A4 (unknown origin). The data set is classed as ADME.
The target of data set [6] is T1, TGF-beta receptor type-1. In words: Inhibition of recombinant N-terminal GST tagged human ALK5 (200 to 503 residues) expressed in baculovirus expression system using FAM-NH2-KVLTQMGSPSIRCSS[PO4]VS peptide as substrate after 90 mins by LanthaScreen TR-FRET assay. On the technique in general: TR-FRET usually uses a lanthanide donor and a delayed reading to cut background.

Data set [7] deals with T1, TGF-beta receptor type-1. In words: Inhibition of ALK5 in human Calu6 cells assessed as reduction in Smad2/3 phosphorylation. The data set is classed as cell-based.
Data set [8] in a line: Oral bioavailability in rat. The settings on record: in vivo. The data set is classed as ADME, organism-based.
Data set [9] deals with T2, Cytochrome P450 2C8 (Homo sapiens, UniProt P10632).
T2 sequence (P10632 whole entry): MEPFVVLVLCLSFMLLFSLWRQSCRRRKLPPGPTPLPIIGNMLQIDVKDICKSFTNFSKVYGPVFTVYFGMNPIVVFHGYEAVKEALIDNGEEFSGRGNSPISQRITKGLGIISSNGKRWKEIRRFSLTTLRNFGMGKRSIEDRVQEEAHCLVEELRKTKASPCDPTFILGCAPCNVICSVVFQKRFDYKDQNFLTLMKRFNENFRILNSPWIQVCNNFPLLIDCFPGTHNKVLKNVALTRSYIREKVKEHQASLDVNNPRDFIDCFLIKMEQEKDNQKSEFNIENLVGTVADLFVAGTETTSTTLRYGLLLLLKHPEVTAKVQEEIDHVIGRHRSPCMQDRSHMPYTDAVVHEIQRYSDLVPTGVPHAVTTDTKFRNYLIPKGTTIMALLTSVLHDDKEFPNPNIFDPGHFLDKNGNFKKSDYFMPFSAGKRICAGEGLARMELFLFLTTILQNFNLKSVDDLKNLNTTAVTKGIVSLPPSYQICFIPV
In words: Inhibition of CYP2C8 (unknown origin). In kind it is ADME.

The nature of data set [10]: Clearance in rat. The data set is classed as ADME. The note with it: in vivo.
Data set [11] is described as follows: Clearance in human microsomes. The data set is classed as ADME, Microsome.
Data set [12] is described as follows: Clearance in rat microsomes. The data set is classed as ADME, Microsome.

Chain of hERG (KCNH2) (Q12809 whole entry): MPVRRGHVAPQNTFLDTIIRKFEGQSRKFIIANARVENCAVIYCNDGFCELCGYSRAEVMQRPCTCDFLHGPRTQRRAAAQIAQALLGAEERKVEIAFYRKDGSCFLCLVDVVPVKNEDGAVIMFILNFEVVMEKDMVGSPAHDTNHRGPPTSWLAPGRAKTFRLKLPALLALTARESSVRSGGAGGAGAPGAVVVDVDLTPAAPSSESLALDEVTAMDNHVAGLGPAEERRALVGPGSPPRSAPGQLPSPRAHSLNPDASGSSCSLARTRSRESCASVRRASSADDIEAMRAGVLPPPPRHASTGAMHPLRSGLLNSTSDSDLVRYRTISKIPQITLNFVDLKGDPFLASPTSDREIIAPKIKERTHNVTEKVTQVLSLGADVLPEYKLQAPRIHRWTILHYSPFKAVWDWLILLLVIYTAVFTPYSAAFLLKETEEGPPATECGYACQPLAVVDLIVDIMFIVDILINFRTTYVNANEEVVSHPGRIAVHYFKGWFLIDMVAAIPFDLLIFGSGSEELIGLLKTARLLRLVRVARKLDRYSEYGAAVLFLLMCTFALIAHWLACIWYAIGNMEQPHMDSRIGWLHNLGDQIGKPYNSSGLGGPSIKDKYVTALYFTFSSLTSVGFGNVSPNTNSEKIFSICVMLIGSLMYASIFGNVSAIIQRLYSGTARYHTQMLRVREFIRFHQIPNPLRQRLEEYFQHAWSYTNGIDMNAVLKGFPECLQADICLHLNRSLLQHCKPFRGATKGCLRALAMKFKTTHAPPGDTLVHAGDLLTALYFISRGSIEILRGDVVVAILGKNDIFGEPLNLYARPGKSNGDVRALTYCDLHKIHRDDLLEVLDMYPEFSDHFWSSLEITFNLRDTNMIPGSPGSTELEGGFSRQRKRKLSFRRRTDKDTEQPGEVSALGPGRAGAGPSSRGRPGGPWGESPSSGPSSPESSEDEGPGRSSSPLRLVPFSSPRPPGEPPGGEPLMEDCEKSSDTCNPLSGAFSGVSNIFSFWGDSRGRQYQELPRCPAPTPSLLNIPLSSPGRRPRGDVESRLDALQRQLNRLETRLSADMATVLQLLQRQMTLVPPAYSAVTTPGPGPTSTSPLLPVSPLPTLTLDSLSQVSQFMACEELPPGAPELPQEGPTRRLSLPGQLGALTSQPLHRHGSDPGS
Chain of Cytochrome P450 3A4 (P08684 whole entry, the tested form may be a part): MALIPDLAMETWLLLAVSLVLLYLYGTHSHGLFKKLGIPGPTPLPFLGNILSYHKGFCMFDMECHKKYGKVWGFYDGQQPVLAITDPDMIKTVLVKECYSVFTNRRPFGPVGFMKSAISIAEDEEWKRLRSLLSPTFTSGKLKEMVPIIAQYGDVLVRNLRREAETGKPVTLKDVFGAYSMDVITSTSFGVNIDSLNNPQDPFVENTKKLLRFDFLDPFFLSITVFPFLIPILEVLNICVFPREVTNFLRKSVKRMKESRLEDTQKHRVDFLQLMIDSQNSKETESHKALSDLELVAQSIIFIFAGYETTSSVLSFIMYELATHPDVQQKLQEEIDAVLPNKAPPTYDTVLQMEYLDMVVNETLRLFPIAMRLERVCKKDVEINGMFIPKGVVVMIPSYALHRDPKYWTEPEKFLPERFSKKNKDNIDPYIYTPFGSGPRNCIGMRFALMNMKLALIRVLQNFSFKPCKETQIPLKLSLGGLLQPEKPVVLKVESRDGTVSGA

By EC50 is commonly meant the concentration giving half of the maximal effect. What is called inhibition is the change of the read-out against control, counted positive when it falls. A high value points to a strong effect. The term IC50 denotes the point on the concentration scale where inhibition reaches its midpoint. With `NC(=O)Cn1cc2nccc(Nc3ccnc(-c4cc(Cl)ccc4F)c3)c2n1`, the EC50 in data set [1] was 100 nM. In addition, the hepatic extraction ratio in data set [2] turned out to be 0.54; in [4], 0.52. The compound also showed an inhibition at 10 µM in data set [3] of 41 to 59%. Further, the results for the IC50 in [5] and in data set [6] were 12600 nM and 12.6 nM, respectively.

Turning to `COc1cccc2nccc(Nc3ccnc(-c4cc(Cl)ccc4F)c3)c12`, the IC50 in data set [6] was 20 nM.

Take `COc1cccc2nccc(Nc3cc(-c4cc(C)ccc4F)ncc3C)c12`: in [6], the IC50 was 12.6 nM.

Take `Fc1ccc(Cl)cc1-c1cc(Nc2ccnc3cn[nH]c23)ccn1`: the EC50 in [1] is 50.1 nM. In [6], the IC50 was 6.31 nM.

With `Fc1ccc(Cl)cc1-c1cc(Nc2ccnc3cnn(CC4CCNCC4)c23)ccn1`, the hepatic extraction ratio came to 0.93 in [2] and 0.91 in [4].

What is called bioavailability is dose-corrected exposure relative to a reference, in per cent. Read a high bioavailability as much systemic uptake. `Cc1ccc(F)c(-c2cc(Nc3ccnc4cnn(C[C@@H](C)O)c34)c(C)cn2)n1`: the values for the EC50 in data set [1] and in data set [7] were 100 nM and 501 nM, respectively. The hepatic extraction ratio in data set [2] and in data set [4] was 0.3 in each case. Further, the inhibition at 10 µM in data set [3] is 42%. In addition, the IC50 in [6] was 7.94 nM. Also, in data set [8], the bioavailability came out at 38%.

As to `NC(=O)Cn1cc2nccc(Nc3ccnc(-c4cc(F)ccc4F)c3)c2n1`, the EC50 is 251 nM in data set [1] and 1580 nM in [7]. For the same compound, the hepatic extraction ratio in [2] was 0.42; in data set [4] it was 0.44.

For the compound `Cc1ccc(F)c(-c2cc(Nc3ccnc4cn[nH]c34)ccn2)c1`, in data set [6], the half-maximal inhibitory concentration (IC50) is 15.8 nM.

On to `CNC(=O)n1ncc2nccc(Nc3ccnc(-c4cc(F)ccc4F)c3)c21`, for which the EC50 was 20 nM in data set [1] and 126 nM in data set [7]. Also, the hepatic extraction ratio is 0.27 in data set [2] and 0.55 in data set [4]. For the same compound, the IC50 in data set [6] is 2.51 nM.

For `Cc1cnc(-c2cc(F)ccc2F)cc1Nc1ccnc2cn(CC(C)O)nc12` (centres undefined), the EC50 in data set [1] is 126 nM; in data set [7] it was 158 nM. The hepatic extraction ratio in data set [2] came to 0.68; in data set [4], 0.79.

On to `Cc1ccc(F)c(-c2cc(Nc3ccnc4cnn(CCO)c34)c(C)cn2)n1`, for which the EC50 in [1] is 20 nM. Besides, the IC50 in data set [6] was 12.6 nM.

Take `Cc1cnc(-c2cc(Cl)ccc2F)cc1Nc1ccnc2cn[nH]c12`: in data set [1], the EC50 is 31.6 nM. In addition, the results for the 50% inhibitory concentration (IC50) in data set [9], in data set [5] and in data set [6] were 398 nM, 3160 nM and 15.8 nM, respectively. Also, the hepatic extraction ratio turned out to be 0.75 in data set [2] and 0.57 in data set [4].

On to `Cc1cnc(-c2cc(F)ccc2F)cc1Nc1ccnc2cnn(CC(C)O)c12` (centres undefined), for which the EC50 in data set [1] is 7.94 nM; in data set [7], 20 nM. In addition, the hepatic extraction ratio was 0.54 in data set [2] and 0.64 in data set [4]. For the same compound, the IC50 in data set [6] is 3.16 nM.

Consider `Fc1ccc(Cl)cc1-c1cc(Nc2ccnc3cn(CC4CCNCC4)nc23)ccn1`, for which the EC50 in [1] is 1000 nM. Also, the hepatic extraction ratio in data set [2] amounted to 0.16; in [4], 0.36. Also, the IC50 in data set [6] is 100 nM.

For `COc1cccc2nccc(Nc3cc(-c4cccc(Cl)c4)ncc3C)c12`, in data set [6], the IC50 is 31.6 nM.

Take `CNC(=O)n1ncc2nccc(Nc3cc(-c4cc(F)ccc4F)ncc3C)c21`: the values for the EC50 in data set [1] and in [7] were 25.1 nM and 20 nM, respectively. In addition, the hepatic extraction ratio was 0.2 in [2] and under 0.23 in data set [4].

`CCn1cc2nccc(Nc3cc(-c4cc(C)ccc4F)ncc3C)c2n1`: the EC50 was 15.8 nM in data set [1] and 158 nM in data set [7]. Besides, in data set [6], the IC50 was 10 nM.

Consider `COc1cccc2nccc(Nc3ccnc(-c4cc(C)ccc4F)c3)c12`, for which the IC50 in [6] was 25.1 nM.

With `CNC(=O)n1ncc2nccc(Nc3ccnc(-c4cc(Cl)ccc4F)c3)c21`, the EC50 was 25.1 nM in data set [1] and 63.1 nM in data set [7]. Besides, the hepatic extraction ratio in [2] was found to be 0.31; in data set [4], 0.57. Moreover, the IC50 in data set [6] was 3.16 nM.

Consider `CCNC(=O)n1ncc2nccc(Nc3ccnc(-c4cc(F)ccc4F)c3)c21`, for which the figures for the EC50 in data set [1] and in data set [7] were 31.6 nM and 158 nM, respectively. Moreover, the hepatic extraction ratio in data set [2] was determined as 0.29; in data set [4] it was 0.53.

For `Cc1cccc(-c2cc(Nc3ccnc4cn[nH]c34)c(C)cn2)n1`, the EC50 in data set [1] was 31.6 nM; in [7], 200 nM. Further, in data set [6], the IC50 is 5.01 nM.

Take `Cc1cnc(-c2cc(F)ccc2F)cc1Nc1ccnc2cn[nH]c12`: the EC50 in data set [1] is 7.94 nM; in data set [7] it was 31.6 nM. For the same compound, the IC50 in [9] was 316 nM; in data set [5] it was 1580 nM. The hepatic extraction ratio in data set [2] was determined as 0.84; in [4] it was 0.74.

As to `COc1cccc2nccc(Nc3ccnc(-c4nc(C)ccc4F)c3)c12`, the IC50 in data set [6] is 39.8 nM.

Regarding `COc1cccc2nccc(Nc3ccnc(-c4ccccc4)c3)c12`, the IC50 in data set [6] is 631 nM.

As for `CNC(=O)n1ncc2nccc(Nc3cc(-c4cc(Cl)ccc4F)ncc3C)c21`, the EC50 in data set [1] is 31.6 nM. Moreover, the results for the hepatic extraction ratio in data set [2] and in [4] were 0.52 and 0.51, respectively. For the same compound, in [6], the IC50 was 15.8 nM.

In general, clearance refers to a measure of how efficiently the substance is removed, as volume per time. High values mean efficient removal, low ones inefficient removal. As for `Cc1cnc(-c2cc(Cl)ccc2F)cc1Nc1ccnc2cnn(CC(N)=O)c12`, the EC50 was 20 nM in data set [1] and 31.6 nM in data set [7]. The compound also yielded a clearance in [10] of 42 mL/min/kg. Also, the hepatic extraction ratio was 0.44 in data set [2] and 0.54 in [4]. Moreover, in data set [3], the inhibition at 10 µM was 41 to 59%. The compound also showed an IC50 in data set [5] of 12600 nM. Also, in data set [8], the bioavailability is 71%.

For `COc1cccc2nccc(Nc3ccnc(-c4cccc(Cl)c4)c3)c12`, in [6], the IC50 is 316 nM.

In the case of `CCc1cnc(-c2cc(Cl)ccc2F)cc1Nc1ccnc2cccc(OC)c12`, in data set [6], the IC50 is 25.1 nM.

As to `COc1cccc2nccc(Nc3cc(-c4cc(Cl)ccc4F)ncc3C3CC3)c12`, the IC50 in data set [6] is 50.1 nM.

For the compound `Cc1ccc(F)c(-c2cc(Nc3ccnc4cn[nH]c34)c(C)cn2)n1`, the figures for the IC50 in [9], in data set [5] and in data set [6] were 2510 nM, 6310 nM and 2.51 nM, respectively. Also, the results for the hepatic extraction ratio in data set [2] and in [4] were 0.74 and 0.57, respectively. The EC50 in data set [7] was 31.6 nM.

`Cc1cnc(-c2cc(Cl)ccc2F)cc1Nc1ccnc2cn(CC(N)=O)nc12`: the EC50 in data set [1] is 12.6 nM; in data set [7], 31.6 nM. The hepatic extraction ratio in data set [2] came out at 0.56; in [4] it was 0.46. In addition, the inhibition at 10 µM in data set [3] was 41 to 59%. Also, the IC50 in [5] was over 50100 nM.

As usually defined, the CLint scaled is the capacity of the preparation to metabolise the compound, expressed as a volume cleared per time. A low value points to greater metabolic stability. Take `COc1cccc2nccc(Nc3cc(-c4cc(Cl)ccc4F)ncc3C)c12`: the CLint scaled in data set [11] worked out at 86 mL/min/kg; in data set [12], 302 mL/min/kg. In data set [3], this compound gave an inhibition at 10 µM of 94%. The IC50 in data set [6] is 12.6 nM.

For the compound `NC(=O)Cn1ncc2nccc(Nc3ccnc(-c4cc(F)ccc4F)c3)c21`, the results for the EC50 in [1] and in [7] were 200 nM and 1260 nM, respectively. Besides, the hepatic extraction ratio was 0.57 in data set [2] and 0.53 in [4].
